Here are results for one compound from patent US20180333491A1 (Sinotau Pharmaceuticals Group, priority 2015, published 2018).

The test system of the series is human pancreatic cancer tumor cells MIA-PaCa-2. Nature of the series: MIA-PaCa-2 subcutaneous model.

Protocol: Tumor cells (i.e., MIA-PaCa-2, WiDr, H2122, colo205) were inoculated in nude mice's flank at 5×10^6 cells per mouse. The mice were grouped when the average volume of tumors reached about 100˜200 mm^3. “QW”=weekly dose. “Q3d”=dosed every third day. “BiW”=biweekly.
The bodyweight and major/minor axis of the mice were measured twice a week, and the tumor volumes were calculated using the formula: Tumor volume=1/2×major axis×minor axis. […] “T” represents average tumor volume of the experimental group (cm^3), and “C” represents average tumor volume of the control group (cm^3). The animals were monitored at all times. The bodyweight and major/minor axis or mice were measured twice a week. When the experiments were concluded, mice were sacrificed and tumors were extracted and weighted.
Tumor volumes were represented with average ±standard error. Data analysis was done using Spss16.0, One-Way ANOVA, LSD (homogeneity of variance) or Dunnett T3 (non-homogeneity of variance). […] P<0.05 represents significant difference.

Regarding `Nc1ccn([C@@H]2O[C@H](CO)[C@@H](O)C2(F)F)c(=O)n1` [Gemcitabine, reference compound], the “Tumor Volume (cm^3) Mean ± SEM” value (Gemcitabine 60 mg/kg i.p., 34 days of treatment) is 1.60 ± 0.11 cm^3. Moreover, where the note is “MIA-PaCa-2 model, over the treatment time”, the bodyweights entry is reported as “decreased significantly by the third dosing”. For the same compound, the tumor regression entry (first experiment) is reported as “not found” and the tumor regression result (repeated experiment) is “not found”.
